From patent US20170197935A1, “INHIBITORS OF DNA GYRASE FOR THE TREATMENT OF BACTERIAL INFECTIONS” (Vitas Pharma Research Private Limited, priority 2012, published 2017)
Values after ≈ are worked out from the molar mass of the structure shown. Read-outs that look alike come from different tables or passages of the source.

Legend:
[1] = tested on: Staphylococcus aureus (ATCC 29213); test: MIC by microbroth dilution, Staphylococcus aureus ATCC 29213; format: cell-based; conditions: ATCC29213
Protocol: (§1) Shown below are the microbiological activities of representative compounds of Formula I of the invention. The compounds were tested by the microbroth dilution method (National committee for Clinical Laboratory Standards, 2011, […]-08) and the Minimum Inhibitory Concentration (MIC) was determined.

[2] = tested on: Methicillin resistant Staphylococcus aureus (ATCC 33591); test: MIC by microbroth dilution, MRSA ATCC 33591; format: cell-based
Protocol: (§2) Shown below are the microbiological activities of representative compounds of Formula I of the invention. The compounds were tested by the microbroth dilution method (National committee for Clinical Laboratory Standards, 2011, M07-08) and the Minimum Inhibitory Concentration (MIC) was determined.
(§3) Analysis of microbiological activity of compounds shown below are the microbiological activities of representative compounds of Formula II of the invention. The compounds were tested by the microbroth dilution method as per the reference in Example 1.

[3] = tested on: Streptococcus pneumoniae (ATCC 6301); test: MIC by microbroth dilution, Streptococcus pneumoniae ATCC 6301; format: cell-based; conditions: ATCC6301
Protocol: as §1

[4] = tested on: Enterococcus faecalis (ATCC 29212); test: MIC by microbroth dilution, Enterococcus faecalis ATCC 29212; format: cell-based; conditions: ATCC29212
Protocol: as §1

[5] = tested on: Moraxella catarrhalis (ATCC 8176); test: MIC by microbroth dilution, Moraxella catarrhalis ATCC 8176; format: cell-based; conditions: ATCC8176
Protocol: as §1

E. coli (ATCC 25922) = test: MIC by microbroth dilution, E. coli ATCC 25922; format: cell-based; conditions: Escherichia coli
Protocol: as §2, §3

E. coli Gyrase = molecular target: T1, E. coli Gyrase (Escherichia coli, UniProt P0AES4+P0AES6); test: in vitro Gyrase supercoiling assay (Inspiralis kit); format: biochemical; conditions: 1 hour at 37° C., read-out: % inhibition of DNA supercoiling activity; for inhibition at 0.1 µM: 0.1 μM compound; for inhibition at 1 µM: 1 μM compound
T1 construct: purchased Inspiralis
Protocol: To test for target specificity, the activity of compounds was evaluated in an in vitro Gyrase assay using recombinant Gyrase protein as per the instructions of the assay kit (Inspiralis). The assay measures the ability of E. coli Gyrase to convert relaxed plasmid DNA into the supercoiled form. The enzyme is incubated with the substrate (relaxed DNA) in the presence and absence of compounds for 1 hour at 37° C. and the DNA is run on a gel at low voltage for several hours. The gel is then stained with Ethidium bromide and DNA in the different forms is quantified using DNA imaging and quantification software (Image Lab). The activity of the enzyme is proportional to the amount of supercoiled form detected.

[6] = tested on: K. pneumoniae (ATCC 700603); test: MIC by microbroth dilution, K. pneumoniae ATCC 700603; format: cell-based; conditions: Klebsiella pneumoniae, ATCC700603, Formula I compounds
Protocol: as §2, §3

E. faecalis ATCC 51299 = test: MIC by microbroth dilution, E. faecalis ATCC 51299; format: cell-based; conditions: Enterococcus faecalis, ATCC51299, Formula II compounds, read-out: Minimum Inhibitory Concentration (MIC) E. faecalis ATCC 51299
Protocol: as §2, §3

[7] = molecular target: T2, ciprofloxacin resistant recombinant Gyrase protein (with mutation S83L) (Escherichia coli, UniProt P0AES4+P0AES6, S83L); test: Gyrase supercoiling assay with ciprofloxacin resistant Gyrase (S83L); format: biochemical; conditions: read-out: Target specificity: % inhibition of supercoiling activity
T2 construct: purchased Inspiralis
Protocol: The enzyme is incubated with the substrate (relaxed DNA) in the presence and absence of compounds for 1 hour at 37° C. and the DNA is run on a gel at low voltage for several hours. The amount of supercoiled DNA is quantified using DNA imaging and quantification software (Image Lab). The activity of the enzyme is proportional to the amount of supercoiled form detected.

[8] = ATCC33591, Formula I compounds, read-out: MIC Methicillin resistant Staphylococcus aureus (ATCC 33591)
[9] = ATCC25922, Formula I compounds, read-out: MIC E. coli (ATCC 25922)
[10] = Formula II compounds, read-out: Minimum Inhibitory Concentration (MIC) MRSA ATCC 33591
[11] = ATCC25922, Formula II compounds, read-out: Minimum Inhibitory Concentration (MIC) E. coli ATCC 25922

Row | Compound | MIC [1] [mg/L] | MIC [2, 8] [mg/L] | MIC [3] [mg/L] | MIC [4] [mg/L] | MIC [5] [mg/L] | MIC (E. coli (ATCC 25922); [9]) [mg/L] | inhibition at 0.1 µM (E. coli Gyrase) [%] | inhibition at 1 µM (E. coli Gyrase) [%] | MIC [6] [mg/L] | MIC [2, 10] [mg/L] | MIC (E. coli (ATCC 25922); [11]) [mg/L] | MIC (E. faecalis ATCC 51299) [mg/L] | inhibition at 0.1 µM [7] [%] | inhibition at 1 µM [7] [%]
1 | COc1ccc2ncc(C#N)c(CCN3CCC(NCc4ccc([N+](=O)[O-])cc4)CC3)c2c1 [VT-03-00045] | 0.06 (≈ 0.135 µM) | 0.12 (≈ 0.269 µM) | 0.5 (≈ 1.12 µM) | 4 (≈ 8.98 µM) | 2 (≈ 4.49 µM) | 32 (≈ 71.8 µM) | 96.5 | 96.5 |  |  |  |  |  | 
2 | COc1ccc2ncc(C#N)c(CCN3CCC(NCc4ccc(F)c([N+](=O)[O-])c4)CC3)c2c1 [VT-03-00048] | 0.12 (≈ 0.259 µM) | 0.5 (≈ 1.08 µM) | 0.5 (≈ 1.08 µM) | 4 (≈ 8.63 µM) | 1 (≈ 2.16 µM) | 8 (≈ 17.3 µM) | 97.5 | 97.3 | > 32 |  |  |  |  | 
3 | COc1ccc2ncc(C#N)c(CCN3CCC(NC(=O)c4ccc([N+](=O)[O-])c(F)c4)CC3)c2c1 [VT-03-00055] | 1 (≈ 2.09 µM) | 4 (≈ 8.38 µM) | 0.03 (≈ 0.0628 µM) | 0.25 (≈ 0.524 µM) | > 32 | > 32 | 52.7 | 71 | > 32 |  |  |  |  | 
4 | COc1ccc2ncc(OCCN3CCC(NCc4ccc(C)c([N+](=O)[O-])c4)CC3)nc2c1 [VT-03-00062a] | 0.5 (≈ 1.11 µM) | 1 (≈ 2.21 µM) | 0.5 (≈ 1.11 µM) | 4 (≈ 8.86 µM) | 2 (≈ 4.43 µM) | 4 (≈ 8.86 µM) |  |  | > 32 |  |  |  |  | 
5 | COc1ccc2ncc(C#N)c(CCN3CCC(NCc4ccc(N(C)C)c([N+](=O)[O-])c4)CC3)c2c1 [VT-03-00064] | 0.12 (≈ 0.246 µM) | 0.25 (≈ 0.512 µM) | 0.12 (≈ 0.246 µM) | 2 (≈ 4.09 µM) | 0.25 (≈ 0.512 µM) | 4 (≈ 8.19 µM) | 89.3 | 98.1 | > 32 |  |  |  |  | 
6 | Cc1ccc(CNC2CCN(CCn3c(=O)ccc4ccc(C#N)cc43)CC2)cc1[N+](=O)[O-] [VT-03-00065] | 0.25 (≈ 0.561 µM) | 1 (≈ 2.24 µM) | 4 (≈ 8.98 µM) | > 32 | > 32 | > 32 |  |  | > 32 |  |  |  |  | 
7 | COc1ccc2ncc(=O)n(CCN3CCC(NCc4ccc(Br)c([N+](=O)[O-])c4)CC3)c2c1 [VT-03-00066] | 0.5 (≈ 0.968 µM) | 1 (≈ 1.94 µM) | 1 (≈ 1.94 µM) | 4 (≈ 7.75 µM) | 4 (≈ 7.75 µM) | 16 (≈ 31 µM) | 55.9 | 89.9 | > 32 |  |  |  |  | 
8 | COc1ccc2ncc(C#N)c(CCN3CCC(NCc4cc(C)cc([N+](=O)[O-])c4C)CC3)c2c1 [VT-03-00075] | 0.12 (≈ 0.253 µM) | 0.12 (≈ 0.253 µM) | 0.06 (≈ 0.127 µM) | 0.5 (≈ 1.06 µM) | 0.5 (≈ 1.06 µM) | 4 (≈ 8.45 µM) |  |  | > 16 |  |  |  |  | 
9 | CCc1ccc(CNC2CCN(CCc3c(C#N)cnc4ccc(OC)cc34)CC2)cc1[N+](=O)[O-] [VT-03-00076] | 0.015 (≈ 0.0317 µM) | 0.03 (≈ 0.0633 µM) | 0.03 (≈ 0.0633 µM) | 0.25 (≈ 0.528 µM) | 0.25 (≈ 0.528 µM) | 2 (≈ 4.22 µM) |  |  | > 16 |  |  |  |  | 
10 | COc1ccc2ncc(C#N)c(CCN3CCC(NCc4cc5c(c([N+](=O)[O-])c4)OCO5)CC3)c2c1 [VT-03-00077] | 0.06 (≈ 0.123 µM) | 0.12 (≈ 0.245 µM) | 0.12 (≈ 0.245 µM) | 1 (≈ 2.04 µM) | 0.25 (≈ 0.511 µM) | 2 (≈ 4.09 µM) | 38.8 | 88.5 | > 16 |  |  |  |  | 
11 | COc1ccc2ncc(C#N)c(CCN3CCC(NCc4cc([N+](=O)[O-])ccn4)CC3)c2c1 [VT-03-00079] | 2 (≈ 4.48 µM) | 2 (≈ 4.48 µM) | 2 (≈ 4.48 µM) | 32 (≈ 71.7 µM) | 4 (≈ 8.96 µM) | 32 (≈ 71.7 µM) | 16.7 | 87.6 |  |  |  |  |  | 
12 | COc1ccc2ncc(=O)n(CCN3CCC(NCc4ccc(C)c(F)c4)CC3)c2n1 [VT-03-00101] |  |  |  |  |  |  |  |  |  | 4 (≈ 9.4 µM) | > 16 | 16 (≈ 37.6 µM) | 95.9 | 92.3
13 | Cc1ccc(CNC2CCN(CCn3c(=O)cnc4ccc(Br)cc43)CC2)cc1F [VT-03-00102] |  |  |  |  |  |  |  |  |  | ≤ 0.0075 | 8 (≈ 16.9 µM) | 0.5 (≈ 1.06 µM) | 96.5 | 95.3
